Measured values taken from patent US6387922B2, “Annulated azole derivatives useful as microbicidal agents” (Bayer Aktiengesellschaft, priority 1997, dated 2002).

What was measured:
Plasmopara viticola = assay: Plasmopara Test (grapevine)/protective; format: in vivo; settings: grapevine young plants, protective spray, application rate 100 g/ha, evaluation 6 days after inoculation; 0% = as control, 100% = no infection
Description: Plasmopara Test (grapevine)/protective
(§1) Solvent: 47 parts by weight of acetone
(§2) Emulsifier: 3 parts by weight of alkyl-aryl polyglycol ether
To produce a suitable preparation of the active compound, 1 part by weight of active compound is mixed with the stated amounts of solvent and emulsifier, and the concentrate is diluted with water to the desired concentration.
To test for protective activity, young plants are sprayed with a preparation of active compound at the stated application rate. After the spray coating has dried on, the plants are inoculated with an aqueous spore suspension of Plasmopara viticola and then remain in an incubation cabin at approximately 20° C. and 100% relative atmospheric humidity for 1 day. The plants are then placed in a greenhouse at approximately 21° C. and approximately 90% atmospheric humidity for 5 days. The plants are then moistened and placed in an incubation cabin for 1 day.
Evaluation is carried out 6 days after the inoculation. 0% means an efficacy which corresponds to that of the control, whereas an efficacy of 100% means that no infection is observed.

Venturia inaequalis = assay: Venturia Test (Apple)/protective; format: in vivo; settings: apple young plants, protective spray, application rate 100 g/ha, evaluation 12 days after inoculation; 0% = as control, 100% = no infection
Description: Venturia Test (Apple)/protective
as §1, §2
To produce a suitable preparation of active compound, 1 part by weight of active compound is mixed with the stated amounts of solvent and emulsifier, and the concentrate is diluted with water to the desired concentration.
To test for protective activity, young plants are sprayed with the preparation of active compound at the stated application rate. After the spray coating has dried on, the plants are inoculated with an aqueous conidia suspension of the causative organism of apple scab Venturia inaequalis and then remain in an incubation cabin at approximately 20° C. and 100% relative atmospheric humidity for 1 day.
The plants are then placed in a greenhouse at approximately 21° C. and a relative atmospheric humidity of approximately 90%.
Evaluation is carried out 12 days after the inoculation. 0% means an efficacy which corresponds to that of the control, whereas an efficacy of 100% means that no infection is observed.

melting point [°C] | SMILES | Efficacy in % (Plasmopara viticola) [%] | Efficacy in % (Venturia inaequalis) [%]
130 to 135 | Cc1noc(C)c1S(=O)(=O)n1cnc2cnccc21 [Example 2, 1-(3,5-dimethyl-isoxazole-4-sulphonyl)-1H-imidazo[4,5-c]pyridine] | 90 | 95
– | Cc1noc(C)c1S(=O)(=O)n1nnc2ccccc21 [1-(3,5-dimethyl-isoxazol-4-sulphonyl)-1H-benzotriazole, reference compound] | 49 | 0
